Measurements: patent US10851096B2, “Aryl and heteroaryl amides for use as anti-proliferative, anti-thrombotic, and anti-viral agents” (Rutgers, The State University of New Jersey, priority 2016, dated 2020)

Experiments:
Akt phosphorylation = test: Gas6-inducible Akt phosphorylation in Axl-positive cancer cell lines; format: cell-based, human; details: pre-treatment with 10 μM
Procedure: (§1) Stable hAxl/IFN-γR1 CHO reporter cell lines (containing human Axl extracellular domains and transmembrane and intracellular domains of human IFN-γR1) were serum starved for 5 hrs±small molecule inhibitors and then stimulated with human Gas6 conditioned media±small molecule inhibitors for 30 minutes. For H1299 human non-small cell lung carcinoma and MDA-MB-231 human breast adenocarcinoma cell lines, the cells were serum starved overnight±small molecule inhibitors and stimulated with human Gas6 conditioned media±small molecule inhibitors for 30 minutes. Whole cell lysates of hAxl/IFN-γR1, H1299 and MDA-MB-231 cells were prepared using HNTG buffer (20 mM HEPES, pH 7.5, 150 mM NaCl, 10% glycerol, 1% Triton X-100, 1 mM PMSF, 1 mM Na3VO4, 10 mM Na2MoO4, 1 mM EDTA, 10 mM NaF and 20 μg/mL aprotinin). The resulting lysates were resolved on SDS-PAGE gel and immunoblotted with respective antibodies.

[1] = system: normal (non-cancerous) cells; test: Cytotoxicity assays using normal (non-cancerous) cells; format: cell-based
native Axl = target: T1, native Axl (Homo sapiens, UniProt P30530); test: Gas6-inducible phosphorylation of native Axl in MDA-MB-231 cells (immunoblot); format: cell-based; details: MBA-MD-231 breast cancer cell line, FIG. 5A
T1 construct: Gas6-inducible phosphorylation of native Axl (pAxl); endogenous in cells; host or cells: MDA-MB-231
T1 sequence (P30530 26-894): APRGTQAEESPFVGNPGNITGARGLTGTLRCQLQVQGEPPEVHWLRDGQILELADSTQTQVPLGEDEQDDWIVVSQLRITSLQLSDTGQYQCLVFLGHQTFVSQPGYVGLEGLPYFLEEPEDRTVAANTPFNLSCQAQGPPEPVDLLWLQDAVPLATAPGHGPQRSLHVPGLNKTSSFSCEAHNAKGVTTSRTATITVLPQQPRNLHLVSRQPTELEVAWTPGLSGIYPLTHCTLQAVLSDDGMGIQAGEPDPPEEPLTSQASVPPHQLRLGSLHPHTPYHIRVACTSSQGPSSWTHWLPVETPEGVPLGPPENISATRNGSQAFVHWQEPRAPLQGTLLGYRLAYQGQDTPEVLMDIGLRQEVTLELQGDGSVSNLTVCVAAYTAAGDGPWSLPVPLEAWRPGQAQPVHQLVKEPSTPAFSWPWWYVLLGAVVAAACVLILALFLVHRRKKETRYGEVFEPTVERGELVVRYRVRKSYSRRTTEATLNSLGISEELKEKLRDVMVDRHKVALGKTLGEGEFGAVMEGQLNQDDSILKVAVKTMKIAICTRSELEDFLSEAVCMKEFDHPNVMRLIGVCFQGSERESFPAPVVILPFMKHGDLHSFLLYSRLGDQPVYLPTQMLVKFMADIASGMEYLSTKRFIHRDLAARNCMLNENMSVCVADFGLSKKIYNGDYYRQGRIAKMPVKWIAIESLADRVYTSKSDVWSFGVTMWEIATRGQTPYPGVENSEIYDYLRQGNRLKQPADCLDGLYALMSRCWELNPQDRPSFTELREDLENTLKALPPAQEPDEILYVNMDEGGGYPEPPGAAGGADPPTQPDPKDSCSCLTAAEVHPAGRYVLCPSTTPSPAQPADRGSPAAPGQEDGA
Procedure: as §1
Immunoblot data were obtained within a linear range of exposure, and intensities were quantified by ImageJ. The levels of hAxl/IFN-γR1 cells lines activation were measured by pSTAT1 whereas the levels of H1299 and MDA-MB-231 cell lines activation were measured by pAxl signal intensities. Blots were normalized to intensities of respective β-actin or GAPDH protein loading controls. […]

H1299 cells = test: Real-time migration assay (RTCA DP Xcelligence), H1299; format: cell-based, human; details: Gas6-inducible H1299 cells
Procedure: (§2) H1299 and MDA-MB-231 cells lines were seeded in complete medium and allowed to attain ˜80% confluence and then serum starved overnight in medium containing 0.5% FBS. The cells were then detached by Accutase (Sigma), counted and resuspended in serum-free RPMI-1640 medium. In the lower chamber of the CIM plate, 1×RPMI-1640 containing 10% FBS was added as a chemoattractant. In the top chamber, 50 μl of 1×RPMI-1640 was added to all wells. Both chambers were assembled, loaded in the Xcelligence system, and run for 30 min for equilibration or background readings. One hundred microliters of each cell line suspended in 1×RPMI-1640 (40,000 cells/100 μl)±Gas6±small molecule inhibitors then were added in triplicates in upper chamber wells. Readings for changes in the cell index (CI) were taken every 10 min for 24 h and migration was shown as a change in cell index versus time.

Axl/Gas6 interaction = target: T2, Axl/Gas6 interaction (Homo sapiens, UniProt P30530); test: Pull-down competitive inhibition assay of Gas6 binding to His-tagged soluble Axl; details: His-tagged soluble Axl Ig1/Ig2 with recombinant Gas6
T2 construct: His-tagged soluble Axl Ig1/Ig2 recombinant proteins; Amgen (Gas6 only)
Procedure: 400 nM His tagged-sAxl were co-incubated with increasing amounts of compound 1A (0, 5, 10 or 20 μM) in a 50 μl reaction mixture of Tris-Nacl Buffer (20 mM Tris.HCl, 150 mM NaCl, pH 8.0), and incubated at 37° C. for 60 minutes, with intermittent mixing. Thereafter, equal amount of hGas6 (100 nM) was added to each tube and incubated at 37° C. for another 60 minutes, with intermittent mixing. To each of the tubes, 1 μg of 6×-His antibody was added and the mixture was incubated overnight at 4° C. on a rotary mixer. After overnight incubation, 30 μl of Protein A/G PLUS agarose beads (Santa Cruz) were added into each of the tubes and incubated for an hour at 4° C. The mixtures were centrifuged and the pellets were then washed four times in ice-cold Nonidet P-40 buffer (20 mM Tris.HCl, 150 mM NaCl, pH 8.0 and 1% Nonidet P-40). Pellets were re-suspended in 30 μl of 2× sample loading dye and boiled for 5 min at 95° C. The samples were fractionated by SDS-PAGE and bound Gas6 was analyzed by immunoblotting.

MDA-MB-231 cells = test: Real-time migration assay (RTCA DP Xcelligence), MDA-MB-231; format: cell-based, human; details: Gas6-inducible MDA-MB-231 cells
Procedure: as §2

[2] = Toxicity and body weight in xenograft mice; format: in vivo; details: for body weights: 100 mg/kg, versus vehicle; for toxicity in cell culture or in vivo: up to highest dose tested 300 mg/kg IP
Procedure: 500,000 H1299 cells in 100 μl of PBS were injected subcutaneously into the right flank of 4-6 week NOD/SCIDg mice. Once tumors were palpable, the mice were randomized into 3 groups, each group had 6 mice: control mice were treated with vehicle (DMSO) intraperitoneally (IP) and the treatment groups with compound 1I (day 1, day 2, day 3 and day 4) or with compound 1Q (day 1, day 2, day 3, day 4, day 7 and day 8) at a dose of 100 mg/kg IP. Similar studies were conducted on compound 1Q dosed at 300 mg/kg in mice. Tumor size and body weights were measured three times a week and the tumor volume calculated.

| Structure (SMILES) | Gas6-inducible Akt phosphorylation (Akt phosphorylation) | cellular toxicity [1] | inhibition of activation (phosphorylation) of Axl (native Axl) | motility (real-time, cell index) (H1299 cells) | inhibition of Axl/Gas6 interaction in vitro (Axl/Gas6 interaction) | motility (real-time, cell index) (MDA-MB-231 cells) | body weights [2] | toxicity in cell culture or in vivo [2] |
| --- | --- | --- | --- | --- | --- | --- | --- | --- |
| Cc1noc(C)c1CSc1ccccc1C(=O)N1CCN(c2cccc(C(F)(F)F)c2)CC1 [1I] | abrogated | no discernible cellular toxicity | potent inhibition | suppressed motility | able to inhibit in vitro the Axl/Gas6 interaction in a dose-dependent manner | suppressed motility | not significantly different | Neither compound 1I nor compound 1Q showed notable toxicity |
| Cc1cc(CSc2ccccc2C(=O)NCCNc2ccc(C(F)(F)F)cc2[N+](=O)[O-])on1 [1Q] | abrogated | no discernible cellular toxicity | potent inhibition | suppressed motility | able to inhibit in vitro the Axl/Gas6 interaction in a dose-dependent manner | suppressed motility | not significantly different | Neither compound 1I nor compound 1Q showed notable toxicity |
